Reference: PMC12568630, “SNAP-tag2 for faster and brighter protein labeling” (Nature Chemical Biology, 2025)

Target: T1, hAGT (Homo sapiens, UniProt P16455)
T1 construct: gene MGMT; parental hAGT
T1 sequence (P16455 1-207): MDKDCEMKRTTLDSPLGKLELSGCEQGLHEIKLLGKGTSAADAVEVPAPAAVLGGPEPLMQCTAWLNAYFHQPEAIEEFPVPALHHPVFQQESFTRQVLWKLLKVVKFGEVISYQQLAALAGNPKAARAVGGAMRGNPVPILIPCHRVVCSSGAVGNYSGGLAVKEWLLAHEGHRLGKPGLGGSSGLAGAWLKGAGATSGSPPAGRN
Test: biochemical
Design: fluorescence polarization labeling kinetics of purified tag proteins with TMR substrates, apparent second-order rate constant
Settings: read-out: hAGT kapp x 10^3

Row | Structure (SMILES) | kinact/KI [M⁻¹ s⁻¹]
1 | CN(C)c1ccc2c(-c3cc(C(=O)NCc4ccc(COc5cc(Cl)nc(N)n5)cc4)ccc3C(=O)[O-])c3ccc(=[N+](C)C)cc-3oc2c1 [CP–TMR] | 800 ± 40
2 | CN(C)c1ccc2c(-c3cc(C(=O)NCc4ccc(COc5cc(C(F)(F)F)nc(N)n5)cc4)ccc3C(=O)[O-])c3ccc(=[N+](C)C)cc-3oc2c1 [compound 4, CF3P–TMR] | 640 ± 40
3 | CN(C)c1ccc2c(-c3cc(C(=O)NCc4ccc(COc5cc(Cl)nc(N)n5)cc4F)ccc3C(=O)[O-])c3ccc(=[N+](C)C)cc-3oc2c1 [compound 22, CF–TMR] | 550 ± 50
4 | CN(C)c1ccc2c(-c3cc(C(=O)NCc4ccc(COc5cc(C(F)(F)F)nc(N)n5)cc4F)ccc3C(=O)[O-])c3ccc(=[N+](C)C)cc-3oc2c1 [compound 30, TF–TMR] | 520 ± 60
